molecular target: B-Raf (V600E)-kinase (Homo sapiens, UniProt P15056, V600E); assay: Kinase test B-Raf (V600E); assay type: biochemical; details: compound concentration 2 μM; 100% = no inhibition, 0% = total inhibition; read-out: % CTL (residual activity of the enzyme relative to DMSO control)
Method: In a dilution series 10 μL of test substance solution are placed in a multiwell plate. The dilution series is selected so that generally a range of concentrations of 2 μM to 0.119 nM or 0.017 nM is covered. If necessary the initial concentration of 2 μM is changed to 50 μM, 10 μM or 0.4 μM or 0.2857 μM and further dilution is carried out accordingly. The final concentration of DMSO is 5%. 10 μL of the B-Raf (V600E)-kinase solution are pipetted in (containing 0.5 ng B-Raf (V600E)-kinase in 20 mM Tris-HCl pH 7.5, 0.1 mM EDTA, 0.1 mM EGTA, 0.286 mM sodium orthovanadate, 10% glycerol, 1 mg/mL bovine serum albumin, 1 mM dithiothreitol) and the mixture is incubated for 1 h at RT under with shaking The kinase reaction is started by the addition of 20 μL ATP solution [final concentration: 250 μM ATP, 30 mM Tris-HCl pH 7.5, 0.02% Brij, 0.2 mM sodium orthovanadate, 10 mM magnesium acetate, 0.1 mM EGTA, phosphatase cocktail (Sigma, # P2850, dilution recommended by the manufacturer), 0.1 mM EGTA] and 10 μL MEK1 solution [containing 50 ng biotinylated MEK1 (prepared from purified MEK1 according to standard procedure, e.g. with EZ-Link Sulpho-NHS-LC-Biotin reagent, Pierce, # 21335) and carried out for 60 min at RT with constant shaking. The reaction is stopped by the addition of 12 μL of a 100 mM EDTA solution and incubation is continued for a further 5 min. 55 μL of the reaction solution are transferred into a streptavidin-coated plate (e.g. Streptawell HighBond, Roche, #11989685001) and shaken gently for 1 h at RT, in order to bind biotinylated MEK1 to the plate. After elimination of the liquid the plate is washed five times with 200 μL of 1×PBS and 100 μL solution of primary antibody plus europium-labelled secondary antibody [Anti Phospho-MEK (Ser217/221), Cell Signaling, # 9121 and Eu-N1 labeled goat-anti-rabbit antibody, Perkin Elmer, #AD0105], the primary antibody is diluted 1:2000 and the secondary antibody is diluted to 0.4-0.5 μg/mL in Delfia Assay Buffer (Perkin Elmer, #1244-111). After 1 h shaking at RT the solution is poured away and washed five times with 200 μL Delfia Wash Buffer (Perkin Elmer, #4010-0010/#1244-114). After the addition of 200 μL Enhancement Solution (Perkin Elmer, #4001-0010/#1244-105) the mixture is shaken for 10 min at RT and then measured in a Wallac Victor using the program “Delfia Time Resolved Fluorescence (Europium)”. IC50 values are obtained from these dosage-activity curves using a software program (GraphPadPrizm).
A value of 100% indicates no inhibition while a value of 0% indicates total inhibition. The % CTL values denote the residual activity of the enzyme after the addition of the inhibitory compound in the solvent DMSO in relation to the enzyme activity in the solvent DMSO without the addition of a compound (control). The values were determined using the B-Raf(V600E)-kinase test described above.

B-Raf (V600E)-kinase, sequence (P15056 whole entry V600E): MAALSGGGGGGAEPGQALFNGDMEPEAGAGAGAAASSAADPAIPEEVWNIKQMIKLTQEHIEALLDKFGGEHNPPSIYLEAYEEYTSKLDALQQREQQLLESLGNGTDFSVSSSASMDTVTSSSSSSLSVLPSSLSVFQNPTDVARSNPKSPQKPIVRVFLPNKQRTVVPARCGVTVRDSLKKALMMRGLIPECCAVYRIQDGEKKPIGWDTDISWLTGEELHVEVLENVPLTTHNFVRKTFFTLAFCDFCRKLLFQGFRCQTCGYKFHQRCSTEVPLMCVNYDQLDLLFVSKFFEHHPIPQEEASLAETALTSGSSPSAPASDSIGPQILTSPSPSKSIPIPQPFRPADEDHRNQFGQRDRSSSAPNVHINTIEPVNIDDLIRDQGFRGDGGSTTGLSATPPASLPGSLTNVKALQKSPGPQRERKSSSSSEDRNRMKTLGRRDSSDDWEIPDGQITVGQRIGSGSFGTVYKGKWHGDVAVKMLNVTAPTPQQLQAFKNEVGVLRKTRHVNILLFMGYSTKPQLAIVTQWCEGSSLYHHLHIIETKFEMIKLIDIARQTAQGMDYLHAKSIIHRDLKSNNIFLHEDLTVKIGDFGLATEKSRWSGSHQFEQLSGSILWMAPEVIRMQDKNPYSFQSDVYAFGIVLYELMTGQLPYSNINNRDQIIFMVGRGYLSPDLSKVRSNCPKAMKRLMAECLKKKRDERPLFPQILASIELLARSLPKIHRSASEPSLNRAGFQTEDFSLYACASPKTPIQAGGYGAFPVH

SMILES | remaining activity at 2 µM [%]
Cc1ncc(C(=O)Nc2cc(C(F)(F)F)cc(N3CCCOCC3)c2C)cc1-n1cc(-c2cnn(C)c2C)nn1 [Example I-118] | 2.6
Cc1ncc(C(=O)Nc2cc(CN3CCCC3)cc(C(F)(F)F)c2)cc1-n1cc(-c2cncs2)nn1 [Example I-123] | 5.8
Cc1ncc(C(=O)Nc2cc(OC(F)(F)F)cc(N3CCN(C)CC3)c2)cc1-n1cc(-c2cncnc2)nn1 [Example I-124] | 1.9
Cc1ncc(C(=O)Nc2cc(CN3CCCC3)c(Cl)c(C(F)(F)F)c2)cc1-n1cc(-c2cncs2)nn1 [Example I-127] | 6.1
Cc1ncc(C(=O)Nc2cc(N3CCN(C)CC3)c(F)c(C(F)(F)F)c2)cc1-n1cc(-c2cncs2)nn1 [Example I-128] | 5.3
CCN1CCN(c2cncc(-c3cn(-c4cc(C(=O)Nc5cc(C(C)(C)C)on5)cnc4C)nn3)c2)CC1 [Example I-134] | 2.6
COCCN1CCN(c2cncc(-c3cn(-c4cc(C(=O)Nc5cc(C(C)(C)C)on5)cnc4C)nn3)c2)CC1 [Example I-135] | 2.6
Cc1ncc(C(=O)Nc2cc(C(C)(C)C)on2)cc1-n1cc(-c2cncc(N3CCC(N4CCOCC4)CC3)c2)nn1 [Example I-136] | 2.5
Cc1ncc(C(=O)Nc2cc(C(C)(C)C)on2)cc1-n1cc(-c2cncc(N3CCN(CC4CC4)CC3)c2)nn1 [Example I-137] | 2.5
Cc1ncc(C(=O)Nc2cc(C(C)(C)C)on2)cc1-n1cc(-c2cncc(NCCN(C)C)c2)nn1 [Example I-138] | 2.5
Cc1ncc(C(=O)Nc2cc(C(C)(C)C)on2)cc1-n1cc(-c2cncc(N3CCC(N4CCCCC4)CC3)c2)nn1 [Example I-139] | 2.5
Cc1ncc(C(=O)Nc2cc(C(C)(C)C)on2)cc1-n1cc(-c2cncc(N3CCN(C(C)C)CC3)c2)nn1 [Example I-140] | 2.2
Cc1ncc(C(=O)Nc2cc(C(C)(C)C)on2)cc1-n1cc(-c2cncc(N(C)CCN(C)C)c2)nn1 [Example I-141] | 2.1
Cc1ncc(C(=O)Nc2ccc(Cl)c(C(F)(F)F)c2)cc1-n1cc(-c2cncc(N3CCN(C)CC3)c2)nn1 [Example I-142] | 1.5
Cc1ncc(C(=O)Nc2cc(C(C)(C)C)on2)cc1-n1cc(-c2cncc(N3CC[C@@H](N(C)C)C3)c2)nn1 [Example I-143] | 2.2
Cc1ncc(C(=O)Nc2cc(C(F)(F)F)ccn2)cc1-n1cc(-c2cncc(N3CCN(C)CC3)c2)nn1 [Example I-144] | 1.9
Cc1ncc(C(=O)Nc2cc(C(C)(C)C)on2)cc1-n1cc(-c2cncc(N3CC[C@H](N(C)C)C3)c2)nn1 [Example I-145] | 2.2
COc1ccc(NC(=O)c2cnc(C)c(-n3cc(-c4cncc(N5CCN(C)CC5)c4)nn3)c2)cc1C(F)(F)F [Example I-146] | 2
Cc1ncc(C(=O)Nc2ccc(Cl)c(C(C)(C)C)c2)cc1-n1cc(-c2cncc(N3CCN(C)CC3)c2)nn1 [Example I-147] | 3.1
Cc1ncc(C(=O)Nc2nc(C(C)(C)C)cs2)cc1-n1cc(-c2cncc(N3CCN(C(C)C)CC3)c2)nn1 [Example I-148] | 4
Cc1ncc(C(=O)Nc2cn(C(C)C)nn2)cc1-n1cc(-c2cncc(N3CCN(C(C)C)CC3)c2)nn1 [Example I-149] | 2.1
Cc1ncc(C(=O)Nc2cnn(C(C)C)c2)cc1-n1cc(-c2cncc(N3CCN(C(C)C)CC3)c2)nn1 [Example I-150] | 4.1
Cc1ncc(C(=O)Nc2cnn(C(C)C)c2C)cc1-n1cc(-c2cncc(N3CCN(C(C)C)CC3)c2)nn1 [Example I-151] | 4.5
Cc1ncc(C(=O)Nc2cc(C(F)(F)F)ccn2)cc1-n1cc(-c2cncc(N3CCN(C(C)C)CC3)c2)nn1 [Example I-152] | 2.4
Cc1ncc(C(=O)Nc2nnc(C(C)(C)C)s2)cc1-n1cc(-c2cncc(N3CCN(C(C)C)CC3)c2)nn1 [Example I-153] | 1.8
Cc1ncc(C(=O)Nc2cc(C(C)C)no2)cc1-n1cc(-c2cncc(N3CCN(C(C)C)CC3)c2)nn1 [Example I-154] | 2.9
Cc1ncc(C(=O)Nc2cc(C(C)(C)C)ncn2)cc1-n1cc(-c2cncc(N3CCN(C(C)C)CC3)c2)nn1 [Example I-155] | 2.6
CCCN1CCN(c2cncc(-c3cn(-c4cc(C(=O)Nc5cc(C(C)(C)C)on5)cnc4C)nn3)c2)CC1 [Example I-164] | 9.9
Cc1ncc(C(=O)Nc2cc(C(C)(C)C)on2)cc1-n1cc(-c2cncc(N3CCN(C4CC4)CC3)c2)nn1 [Example I-165] | 8.9
Cc1ncc(C(=O)Nc2cc(C(C)(C)C)on2)cc1-n1cc(-c2cncc(N3CCN(C4CCCC4)CC3)c2)nn1 [Example I-166] | 7.9

Now from value to compound:

remaining activity at 2 µM [%] | SMILES
1.7 | Cc1ncc(C(=O)Nc2cc(CNCC(C)C)cc(C(F)(F)F)c2)cc1-n1cc(-c2cnn(C)c2C)nn1 [Example I-108]
1.8 | COCCN(C)Cc1cc(NC(=O)c2cnc(C)c(-n3cc(-c4cnn(C)c4C)nn3)c2)cc(C(F)(F)F)c1 [Example I-109]
1.3 | CNCc1cc(NC(=O)c2cnc(C)c(-n3cc(-c4cnn(C)c4C)nn3)c2)cc(C(F)(F)F)c1 [Example I-110]
1.8 | Cc1ncc(C(=O)Nc2cc(CNC3CC3)cc(C(F)(F)F)c2)cc1-n1cc(-c2cnn(C)c2C)nn1 [Example I-111]
2 | COCCN(C)Cc1cc(C(F)(F)F)cc(NC(=O)c2cnc(C)c(-n3cc(-c4cnn(C)c4C)nn3)c2)c1OC [Example I-112]
2.9 | COc1c(CO)cc(NC(=O)c2cnc(C)c(-n3cc(-c4cnn(C)c4C)nn3)c2)cc1C(F)(F)F [Example I-113]
1.9 | Cc1ncc(C(=O)Nc2cc(CO)c(Cl)c(C(F)(F)F)c2)cc1-n1cc(-c2cnn(C)c2C)nn1 [Example I-115]
3.1 | COc1c(CN2CCCC2)cc(NC(=O)c2cnc(C)c(-n3cc(-c4cnn(C)c4C)nn3)c2)cc1C(F)(F)F [Example I-116]
1.8 | Cc1ncc(C(=O)Nc2cc(C(F)(F)F)cc(N(C)CCN(C)C)c2C)cc1-n1cc(-c2cnn(C)c2C)nn1 [Example I-119]
1.7 | CCN1CCN(c2cc(C(F)(F)F)cc(NC(=O)c3cnc(C)c(-n4cc(-c5cnn(C)c5C)nn4)c3)c2C)CC1 [Example I-120]
1.8 | Cc1ncc(C(=O)Nc2cc(C(F)(F)F)cc(N3CCOCC3)c2C)cc1-n1cc(-c2cnn(C)c2C)nn1 [Example I-122]
1.2 | Cc1ncc(C(=O)Nc2cc(C3=CCN(C)CC3)c(C)c(C(F)(F)F)c2)cc1-n1cc(-c2cnn(C)c2C)nn1 [Example I-125]
5.7 | Cc1ncc(C(=O)Nc2cc(C3=CCNCC3)c(C)c(C(F)(F)F)c2)cc1-n1cc(-c2cnn(C)c2C)nn1 [Example I-126]
2.2 | Cc1ncc(C(=O)Nc2cc(CN3CCCC3)c(C)c(C(F)(F)F)c2)cc1-n1cc(-c2cnn(C)c2C)nn1 [Example I-130]
2.2 | Cc1ncc(C(=O)Nc2cc(CNCC(C)C)c(C)c(C(F)(F)F)c2)cc1-n1cc(-c2cnn(C)c2C)nn1 [Example I-131]
1 | Cc1ncc(C(=O)Nc2cc(CNC(C)C)c(C)c(C(F)(F)F)c2)cc1-n1cc(-c2cnn(C)c2C)nn1 [Example I-132]

same assay, conditions: measurement at 1.02 μM (**); 100% = no inhibition, 0% = total inhibition; read-out: % CTL (residual activity of the enzyme relative to DMSO control)

remaining activity at 1.02 µM [%] | SMILES
15.6 | Cc1ncc(C(=O)Nc2cc(C(F)(F)F)cc(N3CCCCC3)c2C)cc1-n1cc(-c2cnn(C)c2C)nn1 [Example I-114]

same assay, conditions: measurement at 1.43 μM (***); 100% = no inhibition, 0% = total inhibition; read-out: % CTL (residual activity of the enzyme relative to DMSO control)

remaining activity at 1.43 µM [%] | SMILES
2.3 | Cc1ncc(C(=O)Nc2cc(C(F)(F)F)cc(N3CCCC3)c2C)cc1-n1cc(-c2cnn(C)c2C)nn1 [Example I-121]

Reference: patent publication US8778929B2, “Substituted heteroaryl inhibitors of B-RAF” (Boehringer Ingelheim International GmbH, priority 2008, dated 2014)
